A short description of this data set: Solid-liquid equilibrium temperature. Particulars: Crystal.

Molecules are shown by their SMILES. Numbers after ± are expanded uncertainties.

Take `c1ccccc1` [benzene]: the Solid-liquid equilibrium temperature by setting is: (100000 kPa) 306.44 ± 1.6 K; (200000 kPa) 329.93 ± 1.8 K; (300000 kPa) 351.25 ± 2 K; (400000 kPa) 370.85 ± 2.2 K; (500000 kPa) 389.07 ± 2.3 K; (600000 kPa) 406.15 ± 2.5 K. The Solid-liquid equilibrium temperature is, setting by setting: (700000 kPa) 422.25 ± 2.6 K; (800000 kPa) 437.52 ± 2.8 K; (900000 kPa) 452.06 ± 2.9 K; (1000000 kPa) 465.96 ± 3.1 K; (1500000 kPa) 538.73 ± 10 K; (2000000 kPa) 584.85 ± 10 K. Also, the Solid-liquid equilibrium temperature runs as follows: (2500000 kPa) 625.73 ± 10 K; (3000000 kPa) 663.67 ± 10 K.
With `O=[N+]([O-])c1ccccc1` [nitrobenzene], the Solid-liquid equilibrium temperature is, setting by setting: (100000 kPa) 299.74 ± 1.5 K; (200000 kPa) 320.77 ± 1.7 K; (300000 kPa) 340.02 ± 1.9 K; (400000 kPa) 360.41 ± 2.1 K; (500000 kPa) 378.61 ± 2.3 K; (600000 kPa) 395.9 ± 2.4 K. Also, the Solid-liquid equilibrium temperature reads like this: (700000 kPa) 412.3 ± 2.6 K; (800000 kPa) 427.24 ± 2.7 K; (900000 kPa) 442.98 ± 2.9 K; (1000000 kPa) 462.61 ± 10 K; (1500000 kPa) 516.38 ± 10 K; (2000000 kPa) 565.62 ± 10 K. Further, the Solid-liquid equilibrium temperature (2500000 kPa) was 595.88 ± 10 K and the Solid-liquid equilibrium temperature (3000000 kPa) was 614.38 ± 10 K.
As to `Clc1ccccc1` [chlorobenzene], the Solid-liquid equilibrium temperature came to 246.4 ± 1.2 K (100000 kPa); 263.03 ± 1.4 K (200000 kPa); 273.46 ± 1.5 K (300000 kPa); 288.44 ± 1.7 K (400000 kPa); 301.03 ± 1.8 K (500000 kPa); 315.62 ± 1.9 K (600000 kPa). Also, the Solid-liquid equilibrium temperature reads like this: (700000 kPa) 325.56 ± 2 K; (800000 kPa) 336.87 ± 2.1 K; (900000 kPa) 348.81 ± 2.2 K; (1000000 kPa) 354.76 ± 10 K; (1500000 kPa) 403.44 ± 10 K; (2000000 kPa) 440.81 ± 10 K. For the same compound, the Solid-liquid equilibrium temperature by setting is: (2500000 kPa) 473.28 ± 10 K; (3000000 kPa) 503.63 ± 10 K; (3500000 kPa) 530.87 ± 10 K.
With `Brc1ccccc1` [bromobenzene], the Solid-liquid equilibrium temperature by setting is: (100000 kPa) 259.05 ± 1.3 K; (200000 kPa) 276.45 ± 1.5 K; (300000 kPa) 292.45 ± 1.7 K; (400000 kPa) 310.05 ± 1.8 K; (500000 kPa) 322.55 ± 1.9 K; (600000 kPa) 336.15 ± 2 K. Besides, the Solid-liquid equilibrium temperature (700000 kPa) is reported as 349.25 ± 2.2 K; the Solid-liquid equilibrium temperature (800000 kPa) is recorded as 361.85 ± 2.3 K; the Solid-liquid equilibrium temperature (900000 kPa) stood at 374.75 ± 2.4 K; the Solid-liquid equilibrium temperature (1000000 kPa) was 382.85 ± 10 K; the Solid-liquid equilibrium temperature (1500000 kPa) came out at 430.05 ± 10 K; the Solid-liquid equilibrium temperature (2000000 kPa) is on record as 473.67 ± 10 K. The Solid-liquid equilibrium temperature turned out to be 514.22 ± 10 K (2500000 kPa), 553.94 ± 10 K (3000000 kPa) and 587.21 ± 10 K (3500000 kPa).

The values are drawn from the NIST ThermoML archive (doi:10.1021/je700276z).
